Measurements from the supplement of paper PMC11208160.

Test: recombinant UMI read abundance after kanamycin selection (control-corrected) (log10(CPM+1)); higher = more efficient recombination; extreme values may be limits of the assay; sequences stand for … in AGTGCAGAGAAAATCGGCCAGTTTTCTCTGCCTGCAGTCCGCATGCCGTGGGACCCCTTGGGTTCTAACCTGTTGCCTAGATTTATGCAGCGGACTGCCTTTCTCCCAAAGTGATAAACCGG…AGGTTGGTTTCACT; site = the 11-nt donor
How it was run: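 Sequenced counts of recombinant UMIs were turned into CPM, averaged across replicates and scaled with control-derived factors. The reported figure is log10(CPM+1). Those UMIs, each 12 nt long, tagged donor and donor-binding-loop pairs on a plasmid with a promoterless kanamycin gene, screened as a pool in Escherichia coli with IPTG (0.07 mM) plus kanamycin or without selection.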
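Further: IS621 bridge recombinase in Escherichia coli cells against a fixed T5 target plasmid.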

In order of rising “recombinant UMI read abundance (log10)” value:
1. GTTAGCACATGGACCGGTTTTCCCGGTAATCCGTATTTGGC (site GTTAGTACTGC)  0
2. GTTCGAGCATGGACCGGTTTTCCCGGTAATCCGTATTTGCG (site GTTCGAGCTAG)  0
3. GTTCTACCATGGACCGGTTTTCCCGGTAATCCGTATTTGCC (site GTTCTACCTGG)  0
4. GTTCTAGCATGGACCGGTTTTCCCGGTAATCCGTATTTGCA (site GTTCAAGCTTG)  0
5. GTTCTAGCATGGACCGGTTTTCCCGGTAATCCGTATTTGCA (site GTTCGAGCTTG)  0
6. GTTGTTCCATGGACCGGTTTTCCCGGTAATCCGTATTTGGT (site GTTGTTCCTAG)  0
7. GTTGTTCCATGGACCGGTTTTCCCGGTAATCCGTATTTGGT (site GTTGTTTCTAC)  0
8. GTTGTTCCATGGACCGGTTTTCCCGGTAATCCGTATTTGGT (site GTTTTTCCTAC)  0
9. GTTGTTCCATGGACCGGTTTTCCCGGTAATCCGTATTTGTT (site GTTGTTCCTAC)  0
10. GTTGTTCCATGGACCGGTTTTCCCGGTAATCCGTATTTGTT (site GTTGTTCCTAG)  0
11. GTTGTTCCATGGACCGGTTTTCCCGGTAATCCGTATTTGTT (site GTTGTTCCTAT)  0
12. GTTGTTCCATGGACCGGTTTTCCCGGTAATCCGTATTTGGT (site GTAGTTCCTAC)  0.00238
13. GTTGTTCCATGGACCGGTTTTCCCGGTAATCCGTATTTGGT (site GTTGGTCCTAC)  0.00325
14. GTTGTTCCATGGACCGGTTTTCCCGGTAATCCGTATTTGGT (site CTTGTTCCTAC)  0.00343
15. GTTGTTCCATGGACCGGTTTTCCCGGTAATCCGTATTTGGT (site GTTGTCCCTAC)  0.00355
16. GTTGTTCCATGGACCGGTTTTCCCGGTAATCCGTATTTGGT (site GTTGTTCCTTC)  0.00361
17. GTTGTTCCATGGACCGGTTTTCCCGGTAATCCGTATTTGGT (site GTTGATCCTAC)  0.00419
18. GTTGTTCCATGGACCGGTTTTCCCGGTAATCCGTATTTGGT (site GTTATTCCTAC)  0.00427
19. GTTGTTCCATGGACCGGTTTTCCCGGTAATCCGTATTTGGT (site GTTGTTCCTAC)  0.00461
20. GTTGTTCCATGGACCGGTTTTCCCGGTAATCCGTATTTGGT (site GTCGTTCCTAC)  0.005
21. GTTGTTCCATGGACCGGTTTTCCCGGTAATCCGTATTTGGT (site GCTGTTCCTAC)  0.00506
22. GTTGTTCCATGGACCGGTTTTCCCGGTAATCCGTATTTGGT (site GTTGTTCCTAT)  0.00563
23. GTTGGGCCATGGACCGGTTTTCCCGGTAATCCGTATTTGAT (site GTTGGGCCTAT)  0.00591
24. GTTGTTCCATGGACCGGTTTTCCCGGTAATCCGTATTTGGT (site GTTGTACCTAC)  0.00624
25. TAAAGGCCATGGACCGGTTTTCCCGGTAATCCGTATTTGTA (site TAAAGACCTTA)  0.00739
26. GTTGTTCCATGGACCGGTTTTCCCGGTAATCCGTATTTGGT (site GTTGTTACTAC)  0.00857
27. TAAAGGCCATGGACCGGTTTTCCCGGTAATCCGTATTTGTA (site TAAAGCCCTTA)  0.00872
28. TAACGAGCATGGACCGGTTTTCCCGGTAATCCGTATTTGGG (site TAAAGAGCTCC)  0.00891
29. GTTGTTCCATGGACCGGTTTTCCCGGTAATCCGTATTTGGT (site GTTGTTCCTAA)  0.00913
30. GTTGTTCCATGGACCGGTTTTCCCGGTAATCCGTATTTGGT (site GTTGCTCCTAC)  0.00968
31. GTTCTAGCATGGACCGGTTTTCCCGGTAATCCGTATTTGCA (site GTTCCAGCTTG)  0.0113
32. GTTGTTCCATGGACCGGTTTTCCCGGTAATCCGTATTTGGT (site ATTGTTCCTAC)  0.0121
33. GTTCGAGCATGGACCGGTTTTCCCGGTAATCCGTATTTGTA (site GTTCGAGCTTC)  0.014
34. GTTGTTCCATGGACCGGTTTTCCCGGTAATCCGTATTTGGT (site TTTGTTCCTAC)  0.0162
35. GTTGTTCCATGGACCGGTTTTCCCGGTAATCCGTATTTGGT (site GTTCTTCCTAC)  0.0166
36. GTTGTTCCATGGACCGGTTTTCCCGGTAATCCGTATTTGGT (site GATGTTCCTAC)  0.0185
37. GTTGTTCCATGGACCGGTTTTCCCGGTAATCCGTATTTGGT (site GTTGTTCCTCC)  0.0221
38. GTTGTTCCATGGACCGGTTTTCCCGGTAATCCGTATTTGGT (site GTTGTGCCTAC)  0.03
39. GTTCCGACATGGACCGGTTTTCCCGGTAATCCGTATTTGTG (site GTTCCGACTCA)  0.0473
40. TAACAACCATGGACCGGTTTTCCCGGTAATCCGTATTTGTT (site TAACAACCTAA)  0.06
41. GTTGTTCCATGGACCGGTTTTCCCGGTAATCCGTATTTGGT (site GGTGTTCCTAC)  0.0704
42. GTTGTTCCATGGACCGGTTTTCCCGGTAATCCGTATTTGGT (site GTTGTTGCTAC)  0.0845
43. TAAAGGCCATGGACCGGTTTTCCCGGTAATCCGTATTTGTA (site TAAAGTCCTTA)  0.12
44. GTTAGTCCATGGACCGGTTTTCCCGGTAATCCGTATTTGAA (site GTTAGTCCTTT)  0.171
45. GTTCATGCATGGACCGGTTTTCCCGGTAATCCGTATTTGGT (site GTACATGCTAC)  0.216
46. GTTCGAACATGGACCGGTTTTCCCGGTAATCCGTATTTGGT (site GTTCGAACTAC)  0.225
47. GTTCATGCATGGACCGGTTTTCCCGGTAATCCGTATTTGGT (site GTCCATGCTAC)  0.258
48. GTTGTTCCATGGACCGGTTTTCCCGGTAATCCGTATTTGGT (site GTTGTTCCTGC)  0.388
49. GTTGTTCCATGGACCGGTTTTCCCGGTAATCCGTATTTGTT (site GTTGTTCCTAA)  0.42
50. GTTTCTGCATGGACCGGTTTTCCCGGTAATCCGTATTTGAG (site GTTTCTGCTCT)  0.45
51. GTTCATGCATGGACCGGTTTTCCCGGTAATCCGTATTTGGT (site GTGCATGCTAC)  0.477
52. GTTGTTCCATGGACCGGTTTTCCCGGTAATCCGTATTTGGT (site GTGGTTCCTAC)  0.508
53. GTTTCAGCATGGACCGGTTTTCCCGGTAATCCGTATTTGTG (site GTTTCAGCTCA)  0.537
54. GTTCGAGCATGGACCGGTTTTCCCGGTAATCCGTATTTGTA (site GTTCGAGCTTG)  0.543
55. TAAAGGCCATGGACCGGTTTTCCCGGTAATCCGTATTTGTA (site TAAAGGCCTTA)  0.544
56. GTTCGAGCATGGACCGGTTTTCCCGGTAATCCGTATTTGTA (site GTTCGAGCTTT)  0.569
57. GTTTCAACATGGACCGGTTTTCCCGGTAATCCGTATTTGAC (site GTTTCAACTGT)  0.631
58. GTTCCTTCATGGACCGGTTTTCCCGGTAATCCGTATTTGAC (site GTTCCTTCTGT)  0.671
59. GTTCGGACATGGACCGGTTTTCCCGGTAATCCGTATTTGTG (site GTTCGGACTCA)  0.706
60. GTTCATGCATGGACCGGTTTTCCCGGTAATCCGTATTTGGT (site GTTCATGCTAC)  0.717
61. GTTGGCGCATGGACCGGTTTTCCCGGTAATCCGTATTTGTG (site GTTGGCGCTCA)  0.74
62. GTTCTCTCATGGACCGGTTTTCCCGGTAATCCGTATTTGTA (site TTTCTCTCTTA)  0.822
63. GTTCGAGCATGGACCGGTTTTCCCGGTAATCCGTATTTGCG (site GTTCGAGCTGG)  0.838
64. GTTCTCTCATGGACCGGTTTTCCCGGTAATCCGTATTTGTA (site ATTCTCTCTTA)  0.848
65. GTTCTAGCATGGACCGGTTTTCCCGGTAATCCGTATTTGCA (site GTTCTAGCTTG)  0.902
66. GTTCTCTCATGGACCGGTTTTCCCGGTAATCCGTATTTGTA (site CTTCTCTCTTA)  0.989
67. GTTCGAGCATGGACCGGTTTTCCCGGTAATCCGTATTTGCG (site GTTCGAGCTTG)  1.23
68. GTTCGAGCATGGACCGGTTTTCCCGGTAATCCGTATTTGCG (site GTTCGAGCTCG)  1.39
69. GTTGAAGCATGGACCGGTTTTCCCGGTAATCCGTATTTGAG (site GTTGAAGCTCT)  1.61
70. TAACGAACATGGACCGGTTTTCCCGGTAATCCGTATTTGCG (site TAACGAACTCG)  1.63
71. GTTCTCTCATGGACCGGTTTTCCCGGTAATCCGTATTTGTA (site GTTCTCTCTTA)  1.83
72. GTTCAAGCATGGACCGGTTTTCCCGGTAATCCGTATTTGTC (site GTTCAAGCTGA)  1.84
73. GTTCGAGCATGGACCGGTTTTCCCGGTAATCCGTATTTGTA (site GTTCGAGCTTA)  1.9
74. GTTCCCTCATGGACCGGTTTTCCCGGTAATCCGTATTTGTA (site GTTCCCTCTTA)  2.5
75. GTTGAGTCATGGACCGGTTTTCCCGGTAATCCGTATTTGAC (site GTTGAGTCTGT)  2.71
